Measured values: US11045485B2, “Glycomimetic inhibitors of PA-IL and PA-IIL lectins” (GlycoMimetics, Inc., priority 2016, dated 2021)
“And” between values parts separate entries of the source, which are not always exact repeats. Equal values may be shown once.

Columns and labels:
PA-IIL = target: T1, PA-IIL (Pseudomonas aeruginosa, UniProt Q9HYN5); experiment: Assay for PA-IIL antagonist activity (competition with fucose-PAA-biotin/streptavidin-HRP on coated plate); format: binding
T1 construct: Dr. Wimmerova, Masaryk University, Brno, Czech Republic (academic supplier)
T1 sequence (Q9HYN5 entry or part of it): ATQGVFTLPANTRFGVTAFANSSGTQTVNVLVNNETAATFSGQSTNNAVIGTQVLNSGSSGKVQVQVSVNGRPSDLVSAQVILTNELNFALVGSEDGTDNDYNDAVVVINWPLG
Protocol: (§1) Wells of a microtiter plate (plate 1) are coated with PA-IIL (Dr. Wimmerova, Masaryk University, Brno, Czech Republic) by incubation for 2 hrs at 37° C. The wells are then blocked for 2 hrs by the addition of 1% bovine serum albumin (BSA) diluted in TBS-Ca (50 mM TrisHCl, 150 mM NaCl, 2 mM CaCl2 pH 7.4) mixed 1:1 v/v with Stabilcoat (Surmodics, Eden Prairie, Minn.). In a second low-binding round-bottom microtiter plate (plate 2), test antagonists are serial diluted in 1% BSA in TBS-Ca/Stabilcoat (60 μl/well). Preformed conjugates of fucose-PAA-biotin (GlycoTech Corp, Gaithersburg, Md.) mixed with streptavidin-HRP (KPL Labs, Gaithersburg, Md.) are added to each well of plate 2 (60 μl/well of 2 μg/ml). Plate 1 is then washed with TBS-Ca and 100 μl/well are transferred from plate 2 to plate 1. After incubation at room temperature for 2 hrs, plate 1 is washed and 100 μl of TMB reagent (KPL Labs, Gaithersburg, Md.) is added to each well. After incubation for 5 minutes at room temperature, the reaction is stopped by adding 100 μl/well of 1M H3PO4 and the absorbance of light at 450 nm is determined by a microtiter plate reader. Absorbance is plotted as a function of antagonist concentration and the concentration at which 50% maximal absorbance (IC50) is obtained is determined from the plot.

[1] = tested on: Pseudomonas aeruginosa PAO1 strain; experiment: Acute P. aeruginosa-induced infection in mouse, monotherapy at different inoculation times; format: in vivo, male C57BL6/J mice
Protocol: (§2) Pseudomonas aeruginosa PAO1 strain is a sequenced, well-characterized strain used as reference strain. Bacteria were grown overnight at 37° C. in Lysogeny Broth Lennox (LB) (BD Europe, Le pont de Claix, France) under orbital shaking (300 rpm) from frozen stock. A secondary culture was performed during 2 hours and before harvesting the bacteria by centrifugation (2000 g, 5 min), and two washings with sterile phosphate-buffered saline (PBS). Turbidity was then approximated by measurement of optical density at A600 (Ultrospec 10 Cell Density Meter, General Electric, Fairfield, Conn.) and verified by serial dilution and plating on LB agar Plates.
(§3) Vehicle was phosphate buffered saline, and test solutions are Glycomimetic Compound (I) 40 mM in PBS, and Compound A 40 mM in PBS. Test articles were provided by GlycoMimetics and stored at −20° C. Tobramycin (1 g) was provided by Laboratoire EREMPHARMA (25 rue Greffulhe—92300 Levallois) and stored at (+4° C.).
(§4) Male C57BL6/J mice (8 weeks old) purchased from Janvier Labs (Route du Genest, 53940 Le Genest-Saint-Isle) were housed a pathogen-free unit of the Lille University Animal Care Facility and allowed food and water ad lib.
(§5) Mice were anesthetized briefly with inhaled sevoflurane (Sevorane™, Abbott, Queensborough, UK), allowing maintenance of spontaneous breathing after which 50 μL of the bacterial solution were administered intranasally representing a total of 1.10^6 CFU/mouse (except for tobramycin study conducted with lethal inoculate of […]). Control mice receive 50 μL of PBS. All mice were sacrificed at 24 h (except for survival studies, mice were monitored on weight and clinical score 96 h post bacterial infection). Glycomimetic Compound (I) or Compound A were administered IN with the inoculum or post-infection (see FIG. 8 and FIG. 12). In appropriate groups, mice were treated 24 h after infection with 12 mg/kg tobramycin administered intraperitoneally.
(§6) For each group, treatment effect was measured with the disease score and daily mortality rate post challenge. The evolution of the disease score assessing the clinical appearance of the animals was evaluated on 4 items scored from 0 to 10 summarized in Table 1 (body temperature, appearance of the bristle, behavior and weight loss; 0: healthy mice, 10 moribund mice). All disease score assessments were performed by two experimenters throughout the study.
(§7) Statistical analysis was performed using Prism 5 software (Graph-Pad Software, San Diego Calif.). Values are expressed as mean±SEM. Comparison groups were analysed with the nonparametric Mann-Whitney test. Survival curves were analysed using Log-rank (Mantel-Cox) test. *p<0.05; ** p<0.01; *** p<0.001 Results are mean+/−Standard error.
Mice, 8 weeks old C57Bl/6J male, received intranasally 1.10^7 CFU of PaO1 and Glycomimetic Compound (I) or Compound A at different time points, as described in FIG. 8.
We analyzed weight loss, clinical disease score and mortality. Fourteen independent cohorts of 5 mice each were tested. Each cohort included an equal representation of testing conditions. All stage 1 cohorts were tested over 4 days. At the conclusion of Stage 1, there was a total of 10 mice for each of the above 7 treatment groups.

Pseudomonas aeruginosa = experiment: Acute lung injury model, treatment with tobramycin; format: in vivo, mice
Protocol: Mice were co-administered 2×10^7 CFU Pseudomonas aeruginosa with or without compound A or glycomimetic compound (I) in combination with 12 mg/kg tobramycin. The tobramycin was administered intraperitoneally 6 hours after bacterial challenge.

[2] = tested on: Pseudomonas aeruginosa strain PaO; experiment: Acute lung injury model, compound co-administered with bacteria; format: in vivo, male BalB/c mice
Protocol: Cohorts of male BalB/c mice (n=5/group) were infected intranasally with either a low (1-2×10^6 CFU) or a high (1-2×10^7 CFU) inoculum of Pseudomonas aeruginosa strain PaO, in combination with saline or multiple dose levels ([…], corresponding to 10, 25 and 50 mg/kg, respectively) of glycomimetic compound (I) or compound A. The bacteria were coadministered with glycomimetic compound (I) or compound A directly into the lungs of each mouse by intratracheal (i.t.) injection via the oropharynx using a 24-gauge feeding needle (total volume of 0.05 mL).
The animals were observed daily beginning 24 hours post infection and cumulative clinical (disease) scores were determined for each mouse (FIGS. 4 and 6). Parameters assessed were: (a) for appearance (smooth→bristly); (b) body temperature (normal→cold); (c) movement (moving→prostate); and (d) weight loss. Clinical scoring ranged from 0 (normal, uninfected appearance) to 10 (severely compromised).
Animals were observed daily for morbidity/mortality and day of death recorded. Kaplan-Meier analysis was used to estimate survival function from life-span data and statistical values derived from a log rank test.

PA-IL = target: T2, PA-IL (Pseudomonas aeruginosa, UniProt Q05097); experiment: Assay for PA-IL antagonist activity (competition with α-galactose-PAA-biotin/streptavidin-HRP on coated plate); format: binding
T2 construct: purchased Sigma-Aldrich, St. Louis, Mo
T2 sequence (Q05097 whole entry): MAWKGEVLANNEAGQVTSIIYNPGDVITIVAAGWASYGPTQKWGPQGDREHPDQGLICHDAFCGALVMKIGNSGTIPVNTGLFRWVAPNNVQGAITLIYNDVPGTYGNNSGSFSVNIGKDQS
Protocol: as §1, with “PA-IL (Sigma-Aldrich, St. Louis, Mo.)” for “PA-IIL (Dr. Wimmerova, Masaryk University, Brno, Czech Republic)”, “CaCl2)” for “CaCl2”, “α-galactose-PAA-biotin” for “fucose-PAA-biotin”

[3] = Uninfected mice treated with compound (non-specific toxicity control); format: in vivo; settings: 40 mM
[4] = tested on: Pseudomonas aeruginosa PAO1 strain; experiment: Acute P. aeruginosa-induced infection in mouse, association with tobramycin; format: in vivo, male C57BL6/J mice
Protocol: as §2, §3, §4, §5, §6, §7
Mice, 8 weeks old C57Bl/6J male, received intranasally 2.10^7 CFU of PAO1 and Glycomimetic Compound (I) or Compound A at different time points with or without an intraperitoneal injection of tobramycin 12 mg/kg (FIG. 12).

[5] = 2.10^7 CFU PAO1, agent alone, H4 administration

## CC1CCC[C@@H](O[C@@H]2OC(CO)[C@H](O)C(O[C@H]3OC(CO)[C@H](O)C(O)C3O)C2O)C1OC1O[C@@H](C)C(O)C(O)[C@@H]1O (stereo partly drawn) [Glycomimetic Compound (I)]
PA-IIL
  IC50: 0.44 µM
[1]; 1.10^7 CFU PaO1, compound administered after 4 hours of infection
  survival: 40%
[1]; 1.10^7 CFU PaO1, compound administered after 6 hours of infection
  survival: 25% and 20%
[1]; 1.10^7 CFU PaO1, compound administered after one hour of infection
  survival: 54.5%
[1]; 1.10^7 CFU PaO1, compound administered with the bacteria
  survival: 90%
[1]; monotherapy, FIGS. 10 and 11
  effect on weight and score disease: superior to Compound A
Pseudomonas aeruginosa; 8 mM in combination with 12 mg/kg tobramycin
  survival: 40%
Pseudomonas aeruginosa; 20 mM in combination with 12 mg/kg tobramycin
  survival: 100%
Pseudomonas aeruginosa; 40 mM in combination with 12 mg/kg tobramycin
  survival: 100%
Pseudomonas aeruginosa; 8, 20 and 40 mM co-administered with bacteria, plus 12 mg/kg tobramycin i.p. 6 hours after challenge
  survival benefit: significantly increased
[2]; high inoculum, co-administered 20 mM, at 96 hr
  survival: 60%
[2]; high inoculum, co-administered 40 mM, at 96 hr
  survival: 100%
[2]; low inoculum 2×10^6 CFU, co-administered 40 mM compound, i.t.
  survival: 100%
PA-IL
  IC50: 7.2 µM
[3]
  morbidity or mortality: no morbidity or mortality was observed
[4]; [5]
  survival: 30%
[4]; 2.10^7 CFU PAO1, association with tobramycin 12 mg/kg i.p., H4 administration
  survival: 90%
[4]; 2.10^7 CFU PAO1, association with tobramycin 12 mg/kg i.p., at 6 h
  survival: 50%
[4]; with tobramycin, at 4 hours
  score disease: lower score

## NC[C@H]1O[C@H](O[C@H]2[C@H](O)[C@@H](O[C@H]3O[C@H](CO)[C@@H](O)[C@H](N)[C@H]3O)[C@H](N)C[C@@H]2N)[C@H](N)C[C@@H]1O [tobramycin, reference compound]
[4]; [5]
  survival: 70%
[4]; 2.10^7 CFU PAO1, agent alone, at 6 h
  survival: 10%
